Assay results published in patent US12486298B2, “Fucosyltransferase specific inhibition using fucose mimetics” (THE FLORIDA INTERNATIONAL UNIVERSITY BOARD OF TRUSTEES, priority 2020, dated 2025).
“Also recorded” adds a separate entry of the source.

What was measured:
[1] = biological target: T1, fucosyltransferase IX (FTIX) (Homo sapiens, UniProt Q9Y231); assay: FTIX exofucosylation of RPMI-8402 cells, Le^x by flow cytometry; assay type: cell-based
T1 sequence (Q9Y231 1-359): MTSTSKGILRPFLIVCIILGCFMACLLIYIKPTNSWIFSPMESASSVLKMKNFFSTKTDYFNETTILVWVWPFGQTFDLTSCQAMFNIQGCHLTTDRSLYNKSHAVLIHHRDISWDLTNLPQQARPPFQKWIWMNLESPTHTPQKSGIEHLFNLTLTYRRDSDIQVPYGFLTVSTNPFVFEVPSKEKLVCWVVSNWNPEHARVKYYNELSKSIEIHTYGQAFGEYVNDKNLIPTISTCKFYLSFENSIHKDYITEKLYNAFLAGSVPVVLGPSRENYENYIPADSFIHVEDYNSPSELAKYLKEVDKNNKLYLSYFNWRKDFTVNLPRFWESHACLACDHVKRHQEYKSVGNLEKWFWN
Protocol: (§1) A Canto II (BD Biosciences) flow cytometer was utilized for flow cytometry and the data acquired was analyzed using FlowJo Software (Treestar). Cells were stained using antibodies specific to sLe^X (Alexa-Fluor 488 Mouse Anti-Human CD15s (BD Biosciences)), or Le^X (APC anti-human CD15 (SSEA-1) Antibody (BioLegend)).
(§2) Cells of the RPMI-8402 cell line and MSC cell line were treated with either 0.3 ug of fucosyltransferase VI (FTVI), 2.7 ug of fucosyltransferase VII (FTVII), 1.0 ug fucosyltransferase IX (FTIX) or buffer-only at 37° C. for 60 minutes. All reactions contained at 1×10^6 cells/30 ul in HBSS with 10 mM Hepes, 0.1% Human Serum Albumin, and 1.0 mM GDP fucose (GDP-Fuc) (Carbosynth) and the appropriate fucosytransferase. Then, mimetic 1 was added to each of the treatment groups in molar equivalents with respect to GDP-Fuc with each of the fucosytransferases. […]
(§3) Mimetic 1 (FIG. 1) was tested as an inhibitor of FT-mediated exofucosylation on these cells and the extent of fucosylation was monitored using antibodies that detect the creation of the relevant fucosylated epitopes, i.e., sLe^x or Le^x. […]

[2] = biological target: T2, fucosyltransferase VII (FTVII) (Homo sapiens, UniProt Q11130); assay: FTVII exofucosylation of mesenchymal stem cells (MSC), sLe^x by flow cytometry; assay type: cell-based; conditions: MSCs
T2 sequence (Q11130 37-342 limits assumed): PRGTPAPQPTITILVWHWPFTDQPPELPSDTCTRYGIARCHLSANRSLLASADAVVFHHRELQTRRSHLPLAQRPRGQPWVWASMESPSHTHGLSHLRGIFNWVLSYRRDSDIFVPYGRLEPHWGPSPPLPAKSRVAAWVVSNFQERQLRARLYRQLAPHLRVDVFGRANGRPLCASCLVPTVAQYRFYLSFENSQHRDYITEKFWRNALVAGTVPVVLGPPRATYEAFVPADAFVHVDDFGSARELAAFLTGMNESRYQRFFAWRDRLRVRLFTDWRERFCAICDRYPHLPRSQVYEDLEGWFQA
Protocol: as §1, §2, §3

[3] = biological target: T3, human fucose-binding DC-SIGN lectin (Homo sapiens, UniProt Q9NNX6); assay: Recognition by DC-SIGN lectin
T3 sequence (Q9NNX6 1-404): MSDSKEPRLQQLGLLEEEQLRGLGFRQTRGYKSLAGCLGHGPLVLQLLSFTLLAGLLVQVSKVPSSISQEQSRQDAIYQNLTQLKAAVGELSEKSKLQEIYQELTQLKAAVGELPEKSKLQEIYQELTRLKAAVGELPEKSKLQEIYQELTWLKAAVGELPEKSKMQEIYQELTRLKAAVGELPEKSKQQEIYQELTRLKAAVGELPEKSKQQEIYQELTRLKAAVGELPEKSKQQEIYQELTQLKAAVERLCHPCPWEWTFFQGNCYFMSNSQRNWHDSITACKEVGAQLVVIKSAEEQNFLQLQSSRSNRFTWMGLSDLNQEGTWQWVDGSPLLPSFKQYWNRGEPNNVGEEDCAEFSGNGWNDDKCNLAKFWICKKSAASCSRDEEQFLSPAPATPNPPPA

[4] = biological target: T2, fucosyltransferase VII (FTVII); assay: FTVII exofucosylation of RPMI-8402 cells, sLe^x by flow cytometry; assay type: cell-based
Protocol: as §1
Cells of the RPMI-8402 cell line and MSC cell line were treated with either 0.3 ug of fucosyltransferase VI (FTVI), 2.7 ug of fucosyltransferase VII (FTVII), 1.0 ug fucosyltransferase IX (FTIX) or buffer-only at 37° C. for 60 minutes. All reactions contained at 1×10^6 cells/30 ul in HBSS with 10 mM Hepes, 0.1% Human Serum Albumin, and 1.0 mM GDP fucose (GDP-Fuc) (Carbosynth) and the appropriate fucosytransferase. Then, mimetic 1 was added to each of the treatment groups in molar equivalents with respect to GDP-Fuc with each of the fucosytransferases. The treatment groups were as follows: 1:1 GDP-Fuc to mimetic 1 (i.e., 1.0 mM GDP-Fuc and 1.0 mM mimetic), 1:2 GDP-Fuc to mimetic 1 (i.e., 1.0 mM GDP-Fuc and 2.0 mM mimetic), or preincubated in presence of FT with a 2.0 mM solution of the mimetic 1 for 45 minutes followed by addition of a 1.0 mM solution of GDP-Fuc for 1 hour. Concentrations of the various FTs were utilized that would maximize the MFI to allow the detection of the efficacy of mimetic 1 to inhibit the various enzymes.
Exofucosylation is a technique whereby a pertinent FT together with GDP-Fuc is placed in a cell suspension to stereoselectively install fucose on pertinent acceptor cell surface glycan(s). For the case of α-1,3-FTs, this approach provides the ability to pinpoint the effect(s) of mimetic addition on creation of fucosylated glycans Le^x and sLe^x, while keeping the rest of the cell's biological functions and its viability intact. Specifically, this study focused on three α-1,3-FTs that can create sLe^x and Le^x determinants: FTVII, FTIX, and FTVI. To assess enzymatic activity, two cell types were utilized, the human lymphoblastic leukemia cell line RPMI-8402 and human mesenchymal stem cells (MSCs).
Mimetic 1 (FIG. 1) was tested as an inhibitor of FT-mediated exofucosylation on these cells and the extent of fucosylation was monitored using antibodies that detect the creation of the relevant fucosylated epitopes, i.e., sLe^x or Le^x. Cells were treated directly with reaction buffer containing the relevant FTs together with 1.0 mM GDP-Fuc and cells untreated with FTs (UT) were used as reference reaction negative control (FIGS. 2A, 2B, 2C, 3, 4A and 4B). […]
Moreover, a pre-incubation protocol was also analyzed, wherein the cell suspension was pre-treated with FTVII and a 2.0 mM solution of mimetic 1 followed by addition of 1.0 mM solution of GDP-Fuc (Pre).

[5] = RPMI-8402 cells, 1.0 mM GDP-Fuc with 1.0 mM or 2.0 mM mimetic 1

SMILES: CC1OC2Oc3ccc(CC(=O)O)cc3SC2C(O)C1O (stereo not drawn) [mimetic 1]
- inhibition of FTIX-mediated exofucosylation (Le^x creation) [1, 5]: did not inhibit FTIX-mediated exofucosylation
- effect of pre-incubation on FTIX-mediated exofucosylation ([1]; pre-incubation with 2.0 mM mimetic 1 prior to addition of GDP-Fuc): no effect
- inhibition of FTVII sLe^x production ([2]; 1.0 mM GDP-Fuc with 1.0 mM or 2.0 mM mimetic 1): inhibition was clear
- level of FTVII inhibition in pre-incubation reactions ([2]; pre-incubation with 2.0 mM mimetic 1, then 1.0 mM GDP-Fuc): stronger
- recognition by DC-SIGN lectin [3]: not recognized
- inhibition of FTVII-driven sLe^x expression [4, 5]: able to inhibit FTVII-driven sLe^x expression
- extent of inhibition, FTVII compared with FTVI ([4]; at 2.0 mM mimetic 1, 1.0 mM GDP-Fuc): slightly higher extent of inhibition on FTVII over FTVI
- inhibition of FTVII sLe^x production after pre-incubation ([4]; pre-incubation of FTVII with 2.0 mM mimetic 1 for 45 minutes, then 1.0 mM GDP-Fuc for 1 hour): significant inhibition of sLe^x production; also recorded: inhibited more completely
- concentration of highest inhibition against FTVII ([4]; titration of mimetic 1, 1.0 mM GDP-Fuc, RPMI-8402 cells, bell-shaped curve): 2.0 mM
